According to ChEMBL document CHEMBL5725356, “Anti-fibrotic pyridinones” (2017):

assay: ET-1 Assay: Fibroblasts (primary human lung and dermal, HFL-1, 3T3 etc) are seeded in 96-well plates at ~15000 cells/well and serum starved for 0-48 hours. After media exchange, compounds serially diluted in DMSO are added to the cells. After a brief incubation of ~30 min, stimulants (TGFb, serum, LPA etc) are added followed by further incubation for 16-48 hours. Media is then harvested and stored frozen in plate format for later endothelin-1 (ET-1) determination by ELISA. Toxicity measurements are made using the ATPlite kit (Perkin-Elmer). ET-1 is quantified using an ELISA kit (R&D Systems). The amount of ET-1 produced in the assay wells are back-calculated using the ELISA standard. The ability of a compound to inhibit ET-1 production is typically analyzed by fitting dose-response curves to a 4-parameter logistic function to obtain an EC50 value.; settings: HFL1

| Structure (SMILES) | EC50 |
| --- | --- |
| CCCCOC(=O)n1cc(-c2ccc(=O)n(-c3ccccc3)c2)cn1 | in the range around 125 µM |
| Cc1cn(-c2ccccc2)c(=O)c2c1CCCC2 | in the range around 125 µM |
| Cn1cc(-c2cn(-c3ccc(OC(F)(F)F)cc3)c(=O)c3c2OCC(=O)N3Cc2ccccc2)cn1 | > 200 µM |
| CCOc1ccc(-n2cc(-c3ccc(F)cc3)c3nccnc3c2=O)c(C)c1 | > 200 µM |
| O=c1cc(OCCN2CCCC2)c(-c2ccc(F)cc2)cn1-c1ccc(OC(F)(F)F)cc1 | < 50 µM |
| O=C1CCCN1CCOc1cc(=O)n(-c2ccc(OC(F)(F)F)cc2)cc1-c1ccc(F)cc1 | > 200 µM |
| O=c1ccc(C2CCCC2)cn1-c1ccccc1 | in the range around 125 µM |
| O=C(NCc1ccccc1)c1cc(=O)n(-c2ccc(OC(F)(F)F)cc2)cc1-c1ccc(F)cc1 | > 200 µM |
| CC(=O)c1ccc(=O)n(-c2ccccc2Cl)c1 | in the range around 125 µM |
| O=C1COc2c(-c3ccc(F)cc3)cn(-c3ccc(OC(F)(F)F)cc3)c(=O)c2N1 | > 200 µM |
| COCCOc1ccc(-n2cc(-c3ccc(F)cc3)c(C)cc2=O)cc1 | in the range around 125 µM |
| CN1CCC(Oc2cc(=O)n(-c3ccc(OC(F)(F)F)cc3)cc2-c2ccc(F)cc2)CC1 | < 50 µM |
| Cc1ccc(=O)n(CCc2ccccc2)c1 | in the range around 125 µM |
| O=c1c2c(c(-c3cccc(F)c3)cn1-c1ccc(OC(F)(F)F)cc1)CCCC2 | < 50 µM |
| CCn1ccc2c(-c3cnn(C)c3)cn(-c3ccc(OC(F)(F)F)cc3)c(=O)c21 | < 50 µM |
| O=C1COc2c(-c3ccc(F)cc3)cn(-c3ccc(OC(F)(F)F)cc3)c(=O)c2N1Cc1ccccc1 | > 200 µM |
| O=c1cc(O)c(-c2ccc(F)cc2)cn1-c1ccc(OC(F)(F)F)cc1 | in the range around 125 µM |
| CC(=O)Nc1cccc(-n2cc(C(C)=O)ccc2=O)c1 | > 200 µM |
| COc1cc(=O)n(-c2ccc(OC(F)(F)F)cc2)cc1-c1ccc(F)cc1 | > 200 µM |
| O=c1cc(OCCN2CCS(=O)(=O)CC2)c(-c2ccc(F)cc2)cn1-c1ccc(OC(F)(F)F)cc1 | > 200 µM |
| O=C(c1ccccc1)n1cc(-c2ccc(=O)n(-c3ccccc3)c2)cn1 | > 200 µM |
| O=c1cc(OC2CCS(=O)(=O)CC2)c(-c2ccc(F)cc2)cn1-c1ccc(OC(F)(F)F)cc1 | < 50 µM |
| Cn1cc(-c2cn(-c3ccc(OC(F)(F)F)cc3)c(=O)c3nc[nH]c23)cn1 | > 200 µM |
| CCCNC(=O)Nc1cc(=O)n(-c2ccc(OC(F)(F)F)cc2)cc1-c1ccc(F)cc1 | > 200 µM |
| COC(=O)Nc1cc(=O)n(-c2ccc(OC(F)(F)F)cc2)cc1-c1ccc(F)cc1 | > 200 µM |
| O=C1CNCCN1CCOc1cc(=O)n(-c2ccc(OC(F)(F)F)cc2)cc1-c1ccc(F)cc1 | > 200 µM |

| Structure (SMILES) | EC50 |
| --- | --- |
| COCCOc1ccc(-n2cc(-c3ccccc3)c(C)cc2=O)cc1 | < 50 µM |
| O=c1c2nsnc2c(-c2ccc(F)cc2)cn1-c1ccc(OC(F)(F)F)cc1 | > 200 µM |
| O=c1cc(NCc2ccccc2)c(-c2ccc(F)cc2)cn1-c1ccc(OC(F)(F)F)cc1 | > 200 µM |
| CC(=O)c1ccc(=O)n(-c2ccc(F)cc2)c1 | > 200 µM |
| O=c1ccc(C2CCCCC2)cn1-c1ccccc1 | in the range around 125 µM |
| Cn1cc(-c2cn(-c3ccc(OC(F)(F)F)cc3)c(=O)c3ccc(C(F)(F)F)nc23)cn1 | < 50 µM |
| CCCOC(=O)Nc1cc(=O)n(-c2ccc(OC(F)(F)F)cc2)cc1-c1ccc(F)cc1 | > 200 µM |
| COCCOc1cc(=O)n(-c2ccc(OC(F)(F)F)cc2)cc1-c1ccc(F)cc1 | > 200 µM |
| CS(=O)(=O)n1cc(-c2ccc(=O)n(-c3ccccc3)c2)cn1 | > 200 µM |
| CCOc1ccc(-n2cc(-c3cnn(C)c3)c3nccnc3c2=O)c(C)c1 | < 50 µM |
| CCOc1ccc(-n2cc(-c3cnn(C)c3)c3c(c2=O)CCCC3)c(C)c1 | < 50 µM |
| Cn1cc(-c2cn(-c3ccc(OC(F)(F)F)cc3)c(=O)c3c2CCCC3)cn1 | < 50 µM |
| O=c1ccc(C2CCC2)cn1-c1ccccc1 | > 200 µM |
| CCOc1ccc(-n2cc(Br)c3nccnc3c2=O)c(C)c1 | < 50 µM |
| Cn1cnc2c(-c3ccc(F)cc3)cn(-c3ccc(OC(F)(F)F)cc3)c(=O)c21 | < 50 µM |
| O=C(Nc1cc(=O)n(-c2ccc(OC(F)(F)F)cc2)cc1-c1ccc(F)cc1)OCc1ccccc1 | > 200 µM |
| O=C1Cc2ccccc2N1c1ccc(OC(F)(F)F)cc1 | in the range around 125 µM |
| CCOC(=O)Nc1cc(=O)n(-c2ccc(OC(F)(F)F)cc2)cc1-c1ccc(F)cc1 | > 200 µM |
| COc1cc(=O)n(-c2ccc(OC(F)(F)F)cc2)cc1-c1cnn(C)c1 | < 50 µM |
| CCC(=O)Nc1cc(=O)n(-c2ccc(OC(F)(F)F)cc2)cc1-c1ccc(F)cc1 | > 200 µM |
| O=c1ccc2c(n1-c1ccccc1)CCC2 | > 200 µM |
| CC(=O)c1ccc(=O)n(-c2cccc(C(F)(F)F)c2)c1 | > 200 µM |
| Cc1cn(C)c2c(=O)n(-c3ccc(OC(F)(F)F)cc3)cc(-c3ccc(F)cc3)c12 | < 50 µM |
| CC(=O)c1ccc(=O)n(-c2ccc(OC(C)C)cc2)c1 | > 200 µM |
| O=c1cc(Oc2ccccc2)c(-c2ccc(F)cc2)cn1-c1ccc(OC(F)(F)F)cc1 | > 200 µM |
| COCCOc1ccc(-n2cc(-c3cn[nH]c3)c(C)cc2=O)cc1 | > 200 µM |

| Structure (SMILES) | EC50 |
| --- | --- |
| Nc1cc(=O)n(-c2ccc(OC(F)(F)F)cc2)cc1-c1ccc(F)cc1 | in the range around 125 µM |
| CCOc1ccc(-n2cc(C(C)=O)ccc2=O)c(C)c1 | > 200 µM |
| COCCOCCOCCOc1ccc(-n2cc(C)ccc2=O)cc1 | > 200 µM |
| O=c1c2c(c(-c3cn[nH]c3)cn1-c1ccc(OC(F)(F)F)cc1)CCCC2 | in the range around 125 µM |
| Cn1cc(-c2cn(-c3ccc(OC(F)(F)F)cc3)c(=O)c3c2NCCC3)cn1 | > 200 µM |
| O=c1cc(Cl)c(-c2ccc(F)cc2)cn1-c1ccc(OC(F)(F)F)cc1 | < 50 µM |
| Cc1ccc(=O)n(Cc2ccccc2)c1 | > 200 µM |
| O=c1c2c(c(-c3ccc(F)cc3)cn1-c1ccc(OC(F)(F)F)cc1)NCCC2 | > 200 µM |
| CCOC(=O)n1cc(-c2ccc(=O)n(-c3ccccc3)c2)cn1 | < 50 µM |
| COc1cccc(-n2cc(C(C)=O)ccc2=O)c1 | > 200 µM |
| O=c1c2ncn(Cc3ccccc3)c2c(-c2ccc(F)cc2)cn1-c1ccc(OC(F)(F)F)cc1 | > 200 µM |
| O=c1ccc2c(n1-c1ccc(OC(F)(F)F)cc1)CCC2 | in the range around 125 µM |
| CC(=O)c1ccc(=O)n(-c2cccc(F)c2)c1 | > 200 µM |
| CCOc1ccc(-n2cc(-c3ccc(F)cc3)c(OC)cc2=O)c(C)c1 | < 50 µM |
| CN1CCN(CCOc2cc(=O)n(-c3ccc(OC(F)(F)F)cc3)cc2-c2ccc(F)cc2)CC1 | < 50 µM |
| CCCCC(=O)Nc1cc(=O)n(-c2ccc(OC(F)(F)F)cc2)cc1-c1ccc(F)cc1 | > 200 µM |
| O=c1c2nccnc2c(-c2ccc(F)cc2)cn1-c1ccc(OC(F)(F)F)cc1 | < 50 µM |
| CC(=O)Nc1cc(=O)n(-c2ccc(OC(F)(F)F)cc2)cc1-c1ccc(F)cc1 | > 200 µM |
| O=c1cc(OCCN2CCOCC2)c(-c2ccc(F)cc2)cn1-c1ccc(OC(F)(F)F)cc1 | in the range around 125 µM |
| Cn1cc(-c2cn(-c3ccc(OC(F)(F)F)cc3)c(=O)c3ncn(Cc4ccccc4)c23)cn1 | > 200 µM |
| Cn1cc(-c2cn(-c3ccccc3)c(=O)c3c2CCCC3)cn1 | < 50 µM |
| Cc1ccc2c(c1)CC(=O)N2c1ccc(OC(F)(F)F)cc1 | > 200 µM |
| O=c1cc(OCc2ccccc2)c(-c2ccc(F)cc2)cn1-c1ccc(OC(F)(F)F)cc1 | > 200 µM |
| O=c1c2ccc(C(F)(F)F)nc2c(-c2ccc(F)cc2)cn1-c1ccc(OC(F)(F)F)cc1 | > 200 µM |
| O=C1COCCN1CCOc1cc(=O)n(-c2ccc(OC(F)(F)F)cc2)cc1-c1ccc(F)cc1 | in the range around 125 µM |
| C[C@H]1CCC(=O)N(c2ccccc2)C1 | > 200 µM |

| Structure (SMILES) | EC50 |
| --- | --- |
| O=C(NCc1ccccc1)Nc1cc(=O)n(-c2ccc(OC(F)(F)F)cc2)cc1-c1ccc(F)cc1 | > 200 µM |
| COCCOc1ccc(-n2cc(-c3cnn(C)c3)c(C)cc2=O)cc1 | > 200 µM |
| CC(=O)n1cc(-c2ccc(=O)n(-c3ccccc3)c2)cn1 | > 200 µM |
| CN1C(=O)COc2c(-c3ccc(F)cc3)cn(-c3ccc(OC(F)(F)F)cc3)c(=O)c21 | > 200 µM |
| Cn1cc(-c2cn(-c3ccc(OC(F)(F)F)cc3)c(=O)c3cccnc23)cn1 | < 50 µM |
| CC(=O)c1ccc(=O)n(-c2ccc(Cl)cc2)c1 | > 200 µM |
| O=c1ccc(-c2ccc(F)cc2)cn1Cc1ccccc1 | < 50 µM |
| C[C@@H]1CCC(=O)N(c2ccccc2)C1 | > 200 µM |
| CC(C)C(=O)Nc1cc(=O)n(-c2ccc(OC(F)(F)F)cc2)cc1-c1ccc(F)cc1 | > 200 µM |
| Cn1cc(-c2cn(-c3ccc(OC(F)(F)F)cc3)c(=O)cc2Cl)cn1 | > 200 µM |
| Cn1cc(-c2cn(-c3ccc(OC(F)(F)F)cc3)c(=O)cc2O)cn1 | > 200 µM |
| CC(C)OC(=O)Nc1cc(=O)n(-c2ccc(OC(F)(F)F)cc2)cc1-c1ccc(F)cc1 | > 200 µM |
| CNc1cc(=O)n(-c2ccc(OC(F)(F)F)cc2)cc1-c1ccc(F)cc1 | > 200 µM |
| O=c1c2cccnc2c(-c2ccc(F)cc2)cn1-c1ccc(OC(F)(F)F)cc1 | > 200 µM |
| CCOc1ccc(-n2cc(-c3cn[nH]c3)c3c(c2=O)CCCC3)c(C)c1 | < 50 µM |
| Cn1cc(-c2cn(-c3ccc(OC(F)(F)F)cc3)c(=O)c3nccnc23)cn1 | < 50 µM |
| CC(C)NC(=O)n1cc(-c2ccc(=O)n(-c3ccccc3)c2)cn1 | in the range around 125 µM |
| O=c1c2c(c(-c3ccc(F)cc3)cn1-c1ccc(OC(F)(F)F)cc1)CCCC2 | > 200 µM |
| COCCOCCOCCOc1cccc(-n2cc(C)ccc2=O)c1 | > 200 µM |
| O=c1ccc(-c2ccc(F)cc2)cn1CCc1ccccc1 | in the range around 125 µM |
| CCCC(=O)Nc1cc(=O)n(-c2ccc(OC(F)(F)F)cc2)cc1-c1ccc(F)cc1 | > 200 µM |
| O=C(Nc1cc(=O)n(-c2ccc(OC(F)(F)F)cc2)cc1-c1ccc(F)cc1)Oc1ccccc1 | > 200 µM |
| O=c1c2nc[nH]c2c(-c2ccc(F)cc2)cn1-c1ccc(OC(F)(F)F)cc1 | > 200 µM |
